Assay results taken from the supplement of paper PMC13207355.

Columns and labels:
Conditions in all cases: exposure time: 72 h
[1] = system: E21 (patient-derived glioblastoma stem cells of mesenchymal subtype); experiment: phenotypic distance (Euclidean, principal components) from DMSO controls (arbitrary units); higher = stronger morphological change
[2] = system: E31 (patient-derived glioblastoma stem cells of proneural subtype); experiment: as above
[3] = system: E57 (patient-derived glioblastoma stem cells of mesenchymal subtype); experiment: as above
[4] = system: E28 (patient-derived glioblastoma stem cells of classical subtype); experiment: as above
[5] = system: E13 (patient-derived glioblastoma stem cells of classical subtype); experiment: as above
[6] = system: FT3469 (normal neural stem cell line); experiment: as above
[7] = system: E34 (patient-derived glioblastoma stem cells of proneural subtype); experiment: as above
[8] = system: E21; experiment: surviving fraction (nuclei count normalised to DMSO); higher = more cells surviving (less toxic)
[9] = system: E31; experiment: as above
[10] = system: E57; experiment: as above
[11] = system: E28; experiment: as above
[12] = system: E13; experiment: as above
[13] = system: FT3469; experiment: as above
[14] = system: E34; experiment: as above
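Throughout, for phenotypic distance (Euclidean, principal components) from DMSO controls: cell Painting imaging in 384-well plates, CellProfiler features reduced to at least 20 principal components, Euclidean distance versus same-plate DMSO vehicle wells (0.1% v/v), median over six images per well.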
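Throughout, for surviving fraction (nuclei count normalised to DMSO): nuclei counted by high-content imaging of Hoechst-stained cells in laminin-coated 384-well plates, relative to 0.1% DMSO vehicle wells, with staurosporine as cell-death control.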

CCC(C)n1ncn(-c2ccc(N3CCN(c4ccc(OCC5COC(Cn6cncn6)(c6ccc(Cl)cc6Cl)O5)cc4)CC3)cc2)c1=O (stereo unspecified) [Itraconazole]
Conditions	phenotypic distance	surviving fraction
[1], 4.1 nM	0.987	–
[1], 12.3 nM	0.508	–
[1], 37 nM	0.932	–
[1], 111.1 nM	0.917	–
[1], 333.3 nM	0.975	–
[1], 1000 nM	3.76	–
[1], 3000 nM	7.08	–
[2], 4.1 nM	0.564	–
[2], 12.3 nM	0.769	–
[2], 37 nM	0.273	–
[2], 111.1 nM	0.748	–
[2], 333.3 nM	0.758	–
[2], 1000 nM	1.32	–
[2], 3000 nM	5	–
[3], 4.1 nM	0.542	–
[3], 12.3 nM	0.297	–
[3], 37 nM	0.803	–
[3], 111.1 nM	0.874	–
[3], 333.3 nM	0.482	–
[3], 1000 nM	2.51	–
[3], 3000 nM	6.42	–
[4], 4.1 nM	0.725	–
[4], 12.3 nM	0.689	–
[4], 37 nM	0.685	–
[4], 111.1 nM	0.54	–
[4], 333.3 nM	0.778	–
[4], 1000 nM	1.01	–
[4], 3000 nM	1.89	–
[5], 4.1 nM	0.693	–
[5], 12.3 nM	0.503	–
[5], 37 nM	1.03	–
[5], 111.1 nM	0.709	–
[5], 333.3 nM	0.981	–
[5], 1000 nM	2.73	–
[5], 3000 nM	4.62	–
[6], 4.1 nM	0.966	–
[6], 12.3 nM	0.554	–
[6], 37 nM	1.33	–
[6], 111.1 nM	3.66	–
[6], 333.3 nM	0.753	–
[6], 1000 nM	1.14	–
[6], 3000 nM	3.43	–
[7], 4.1 nM	0.775	–
[7], 12.3 nM	0.644	–
[7], 37 nM	0.488	–
[7], 111.1 nM	0.692	–
[7], 333.3 nM	0.901	–
[7], 1000 nM	1.17	–
[7], 3000 nM	4	–
[8], 4.1 nM	–	1.03
[8], 12.3 nM	–	1.02
[8], 37 nM	–	1.01
[8], 111.1 nM	–	0.979
[8], 333.3 nM	–	1.05
[8], 1000 nM	–	0.79
[8], 3000 nM	–	0.532
[9], 4.1 nM	–	1.13
[9], 12.3 nM	–	1.12
[9], 37 nM	–	1.1
[9], 111.1 nM	–	1.03
[9], 333.3 nM	–	1.08
[9], 1000 nM	–	1.09
[9], 3000 nM	–	0.996
[10], 4.1 nM	–	1.05
[10], 12.3 nM	–	1.03
[10], 37 nM	–	1.02
[10], 111.1 nM	–	1.08
[10], 333.3 nM	–	1.07
[10], 1000 nM	–	0.999
[10], 3000 nM	–	0.558
[11], 4.1 nM	–	1.1
[11], 12.3 nM	–	1.07
[11], 37 nM	–	1.18
[11], 111.1 nM	–	0.888
[11], 333.3 nM	–	1.07
[11], 1000 nM	–	0.897
[11], 3000 nM	–	0.735
[12], 4.1 nM	–	0.869
[12], 12.3 nM	–	1.07
[12], 37 nM	–	0.889
[12], 111.1 nM	–	1.02
[12], 333.3 nM	–	0.966
[12], 1000 nM	–	0.801
[12], 3000 nM	–	0.653
[13], 4.1 nM	–	0.763
[13], 12.3 nM	–	1.05
[13], 37 nM	–	1.03
[13], 111.1 nM	–	1.06
[13], 333.3 nM	–	0.993
[13], 1000 nM	–	0.895
[13], 3000 nM	–	0.53
[14], 4.1 nM	–	0.814
[14], 12.3 nM	–	0.933
[14], 37 nM	–	0.922
[14], 111.1 nM	–	1.02
[14], 333.3 nM	–	1.04
[14], 1000 nM	–	0.831
[14], 3000 nM	–	0.701

C/C(=C\c1csc(C)n1)[C@@H]1C[C@@H]2O[C@]2(C)CCC[C@H](C)[C@H](O)[C@@H](C)C(=O)C(C)(C)[C@@H](O)CC(=O)N1 [Ixabepilone]
Conditions	phenotypic distance	surviving fraction
[1], 4.1 nM	6.26	–
[1], 12.3 nM	5.66	–
[1], 37 nM	6.8	–
[1], 111.1 nM	5.59	–
[1], 333.3 nM	6.55	–
[1], 1000 nM	6.74	–
[1], 3000 nM	6.15	–
[2], 4.1 nM	2.61	–
[2], 12.3 nM	3.43	–
[2], 37 nM	3.83	–
[2], 111.1 nM	4.57	–
[2], 333.3 nM	4.48	–
[2], 1000 nM	4.78	–
[2], 3000 nM	4.08	–
[3], 4.1 nM	6.02	–
[3], 12.3 nM	5.51	–
[3], 37 nM	5.64	–
[3], 111.1 nM	5.48	–
[3], 333.3 nM	7.37	–
[3], 1000 nM	6.58	–
[3], 3000 nM	6.89	–
[4], 4.1 nM	2.8	–
[4], 12.3 nM	2.1	–
[4], 37 nM	3.6	–
[4], 111.1 nM	4.12	–
[4], 333.3 nM	4.09	–
[4], 1000 nM	3.46	–
[4], 3000 nM	4.61	–
[5], 4.1 nM	4.32	–
[5], 12.3 nM	5.35	–
[5], 37 nM	4.56	–
[5], 111.1 nM	5.86	–
[5], 333.3 nM	5.9	–
[5], 1000 nM	6.44	–
[5], 3000 nM	6.86	–
[6], 4.1 nM	2.99	–
[6], 12.3 nM	3.28	–
[6], 37 nM	4.81	–
[6], 111.1 nM	3.58	–
[6], 333.3 nM	3.51	–
[6], 1000 nM	4.06	–
[6], 3000 nM	4.05	–
[7], 4.1 nM	2.35	–
[7], 12.3 nM	2.42	–
[7], 37 nM	2.65	–
[7], 111.1 nM	3.43	–
[7], 333.3 nM	3.13	–
[7], 1000 nM	3.44	–
[7], 3000 nM	4.33	–
[8], 4.1 nM	–	0.229
[8], 12.3 nM	–	0.256
[8], 37 nM	–	0.211
[8], 111.1 nM	–	0.245
[8], 333.3 nM	–	0.286
[8], 1000 nM	–	0.259
[8], 3000 nM	–	0.243
[9], 4.1 nM	–	0.269
[9], 12.3 nM	–	0.261
[9], 37 nM	–	0.172
[9], 111.1 nM	–	0.149
[9], 333.3 nM	–	0.137
[9], 1000 nM	–	0.208
[9], 3000 nM	–	0.157
[10], 4.1 nM	–	0.172
[10], 12.3 nM	–	0.152
[10], 37 nM	–	0.128
[10], 111.1 nM	–	0.0952
[10], 333.3 nM	–	0.0774
[10], 1000 nM	–	0.0873
[10], 3000 nM	–	0.0627
[11], 4.1 nM	–	0.611
[11], 12.3 nM	–	0.6
[11], 37 nM	–	0.431
[11], 111.1 nM	–	0.464
[11], 333.3 nM	–	0.345
[11], 1000 nM	–	0.404
[11], 3000 nM	–	0.237
[12], 4.1 nM	–	0.341
[12], 12.3 nM	–	0.286
[12], 37 nM	–	0.271
[12], 111.1 nM	–	0.193
[12], 333.3 nM	–	0.21
[12], 1000 nM	–	0.193
[12], 3000 nM	–	0.175
[13], 4.1 nM	–	0.574
[13], 12.3 nM	–	0.624
[13], 37 nM	–	0.63
[13], 111.1 nM	–	0.677
[13], 333.3 nM	–	0.521
[13], 1000 nM	–	0.716
[13], 3000 nM	–	0.548
[14], 4.1 nM	–	0.609
[14], 12.3 nM	–	0.672
[14], 37 nM	–	0.582
[14], 111.1 nM	–	0.531
[14], 333.3 nM	–	0.465
[14], 1000 nM	–	0.421
[14], 3000 nM	–	0.331
